In patent US20230107216A1, “PANTETHEINE DERIVATIVES AND USES THEREOF” (Comet Therapeutics, Inc., priority 2018, published 2023):
Read-outs that look alike come from different tables or passages of the source.

Legend:
Assay type in all cases: cell-based
HepG2 cells [1] = test: Glucose uptake (Glucose Uptake-Glo); conditions: Homo sapiens, read-out: % increase in Glucose Uptake
[2] = system: Very long-chain acyl-CoA dehydrogenase (VLCAD) primary fibroblasts GM17475; test: Total NAD+ + NADH and NAD+ (NAD/NADH-Glo), VLCAD fibroblasts GM17475; conditions: Homo sapiens, Fibroblast, VLCAD GM17475 P10, assay condition A, 24h, read-out: Increase in Total NAD+ + NADH
Description: Primary adherent fibroblasts were cultured in minimum essential medium (MEM) (Gibco, 25030081) supplemented with 2 mM L-Glutamine (Gibco, 25030081), 15% fetal bovine serum (FBS) (Gibco, 26400044) and 1% penicillin/streptomycin (Gibco, 5140122) at 37° C. and 5% CO2. Cells were collected for either passaging or experiment at ˜70-80% confluence. Cells were obtained by trypsinization and seeded in cell culture microplates either white plate (Thermo Fisher Scientific, 152028) for luminescent measurement or black plate (Thermo Fisher Scientific, 165305) for fluorescent based read out for different assays listed below. Cells were obtained by trypsinization and […] were seeded and allowed to adhere for 16-18 hours to have confluency around 70-80% in the cell well with culture media. After 24 hours prior to measurements (37° C., 5% CO2) media was changed to Dulbecco's Modified Eagle Medium (DMEM, Agilent Seahorse cat #103575-100) with the appropriate supplements as stated below.
Primary fibroblasts assayed were Propionic Acidemia (PA) (GM03590 Coriell Institute for Medical Research, Tsi 6337 Trans-Hit Bio), Methylmalonic Acidemia (MMA) (Tsi 5224 Trans-Hit Bio), Subnormal activation of pyruvate dehydrogenase complex (PDH) (GM01503 Coriell Institute for Medical Research), Very long-chain acyl-CoA dehydrogenase (VLCAD) (GM17475), Leigh Syndrome (LS) (GM03672, GM13411 Coriell Institute for Medical Research), Pyruvate Carboxylase Deficiency (PC) (GM00444 Coriell Institute for Medical Research). 10 μM of Compounds were added for 2 hours in PA, MMA lines and for 24h for the other fibroblast lines.
Assay was performed according to manufacturer instructions (NAD/NADH-Glo Assay Promega, G9072). The NAD/NADH-Glo Assay is a bioluminescent assay for detecting total oxidized and reduced nicotinamide adenine dinucleotides (NAD+ and NADH, respectively) from which ratio of NAD/NADH can be calculated. Briefly, for every assay a 12-point standard curve was prepared ranging from 400 nM to 0.625 nM. Media was removed and replaced with 50 μl of PBS for both assays.
For individual NAD+ and NADH measurement, 50 μl of 1% DTAB (Sigma Cat #D5047) (cell lysis reagent) in 0.2N NaOH was added to the plate and a total 100 μl of lysate was split into two plates with 50 μl each. 25 μl of 0.4N HCl were added to the NAD+ plate and both NAD+ and NADH plate were heated at 60° C. for 15 minutes. The acid and heat treatment destroyed NADH allowing individual NAD+ measurement while heating in basic conditions destroys NAD+ allowed individual NADH measurements. The plates were allowed to come to room temperature for 10 minutes and Trizma base (Sigma, T1699) was added to the NAD+ plate to neutralize the acid and HCl Trizma hydrochloride (Sigma, T2694) was added to the NADH plate. The NADNADH glo reagent was prepared by adding: 625 μl of NAD cycling substrate, 125 μl of reductase, 125 μl of reductase substrate, 125 μl NAD cycling enzyme to total of the 25 ml of NAD GLO reagent. 1:1 ratio of total volume of reagent was added to the individual NAD+, NADH measurement (total 100 μl) and 50 μl for total NAD/NAH measurement. Luminescence was read between 30-60 minutes within the linear range.
A total dead cell count was performed as described in Example 817 and only alive cells were used for analysis.

[3] = system: Propionic Acidemia (PA) primary fibroblasts GM00371; test: Mitochondrial respiration, XFe96 Extracellular Flux Analyzer (OCR/ECAR), PA fibroblasts GM00371; conditions: Homo sapiens, Fibroblast, read-out: Increase in Maximal Respiratory Capacity AUC
HepG2 cells [4] = test: Mitochondrial membrane potential (MITO-ID MP detection Kit); conditions: Homo sapiens, 168 h, 7 days; for activation at 10 µM: read-out: % increase in Mitochondrial Membrane Potential; for inhibition at 50 µM: read-out: % decrease in Mitochondrial Membrane Potential
Procedure, shortened: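 Cells plated at 160000 cells/mL in DMEM with 10% FBS and 1% Pen-Strep, adhered overnight at 37° C., 5% CO2. Exposure to test compounds (50-10 μM) or 0.2% DMSO for 7 days without media change; membrane potential measured with MITO-ID MP detection kit per manufacturer.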

[5] = assay condition D (1 mM glucose, 10% FBS)
[6] = assay condition C (10 mM glucose, 10% FBS)

## CC(=O)OCC(C)(C)[C@@H](OC(C)=O)C(=O)NCCC(=O)NCCSC(C)=O [Compound 1264, (1R)-3-(acetyloxy)-1-[(2-[[2-(acetylsulfanyl)ethyl]carbamoyl]ethyl)carbamoyl]-2,2-dimethylpropyl acetate]
HepG2 cells [1]
  activation at 50 µM: ≥ 20%
[2]
  activation at 10 µM: ≥ 10%

## CCC(=O)CC(=O)SCCNC(=O)CCNC(=O)[C@H](O)C(C)(C)CO [Compound 382, (2R)-2,4-dihydroxy-3,3-dimethyl-N-[2-([2-[(3-oxopentanoyl)sulfanyl]ethyl]carbamoyl)ethyl]butanamide]
HepG2 cells [1]
  activation at 50 µM: ≥ 30%
[3]; assay condition D (1 mM glucose, 10% FBS), 10 μM
  activation at 10 µM: ≥ 10%
[2]
  activation at 10 µM: ≥ 10%

## CC[C@@H](O)CC(=O)SCCNC(=O)CCNC(=O)[C@H](O)C(C)(C)CO [Compound 1245, (2R)-2,4-dihydroxy-N-{2-[(2-{[(3R)-3-hydroxypentanoyl]sulfanyl}ethyl)carbamoyl]ethyl}-3,3-dimethylbutanamide]
[2]
  activation at 10 µM: ≥ 10%

## CC(O)CC(O)CC(O)CC(=O)SCCNC(=O)CCNC(=O)[C@H](O)C(C)(C)CO (some centres unmarked) [Compound 401]
[2]
  activation at 10 µM: ≥ 10%
HepG2 cells [4]
  activation at 10 µM: > 10%

## CC(C)(CO)[C@@H](O)C(=O)NCCC(=O)NCCSC(=O)CC(=O)CCC(=O)O [Compound 2, 6-[(2-[3-[(2R)-2,4-dihydroxy-3,3-dimethylbutanamido]propanamido]ethyl)sulfanyl]-4,6-dioxohexanoic acid]
HepG2 cells [1]
  activation at 10 µM: ≥ 10%
[3]; [5]
  activation at 50 µM: ≥ 10%
[2]
  activation at 10 µM: ≥ 10%

## C[C@@H](O)CC(=O)CC(=O)SCCNC(=O)CCNC(=O)[C@H](O)C(C)(C)CO [Compound 42, (2R)-2,4-dihydroxy-N-[2-[(2-[[(5R)-5-hydroxy-3-oxohexanoyl]sulfanyl]ethyl)carbamoyl]ethyl]-3,3-dimethylbutanamide]
[2]
  activation at 10 µM: ≥ 10%

## C[C@@H](O)CC(=O)SCCNC(=O)CCNC(=O)[C@H](O)C(C)(C)CO [Compound 38, S-2-{3-[(R)-2,4-dihydroxy-3,3-dimethylbutyrylamino]propionylamino} ethyl (R)-3-hydroxybutanethioate]
[2]
  activation at 10 µM: ≥ 10%
HepG2 cells [4]
  inhibition at 50 µM: > 30%

## CC(O)C(C(=O)SCCNC(=O)CCNC(=O)[C@H](O)C(C)(C)CO)C(C)O (stereo partly drawn) [Compound 1285, (2R)-2,4-dihydroxy-N-[2-[(2-[[3-hydroxy-2-(1-hydroxyethyl)butanoyl]sulfanyl]ethyl)carbamoyl]ethyl]-3,3-dimethylbutanamide]
HepG2 cells [1]
  activation at 10 µM: ≥ 30%
[3]; [6]
  activation at 50 µM: ≥ 10%
[2]
  activation at 10 µM: ≥ 10%
HepG2 cells [4]
  inhibition at 50 µM: > 30%

## CC(=O)SCCNC(=O)CCNC(=O)[C@H](O)C(C)(C)COC(=O)CCC(=O)O [Compound 1242, (R)-12-hydroxy-13,13-dimethyl-2,7,11,16-tetraoxo-15-oxa-3-thia-6,10-diazanonadecan-19-oic acid]
[2]
  activation at 10 µM: ≥ 10%

## CC(O)CC(O)CC(=O)SCCNC(=O)CCNC(=O)[C@H](O)C(C)(C)CO (some centres unmarked) [Compound 400]
[2]
  activation at 10 µM: ≥ 10%
HepG2 cells [4]
  activation at 10 µM: > 20%

## COC(=O)CC(C(C)=O)C(=O)SCCNC(=O)CCNC(=O)[C@H](O)C(C)(C)CO (some centres unmarked) [Compound 410]
HepG2 cells [1]
  activation at 50 µM: ≥ 30%
[3]; [5]
  activation at 50 µM: ≥ 10%
[2]
  activation at 10 µM: ≥ 10%

## CC(=O)OCC(C)(C)[C@@H](O)C(=O)NCCC(=O)NCCSC(=O)CC(=O)CCC(=O)O [Compound 140, 6-[(2-[3-[(2R)-4-(acetyloxy)-2-hydroxy-3,3-dimethylbutanamido]propanamido]ethyl)sulfanyl]-4,6-dioxohexanoic acid]
[3]; [6]
  activation at 50 µM: ≥ 10%
[2]
  activation at 10 µM: ≥ 10%
